Assay results taken from patent US9150555B2, “Amide derivative and use thereof” (Mitsubishi Tanabe Pharma Corporation, priority 2010, dated 2015).

How the values were obtained:
[1] = tested on: IL-17 production of mouse spleen cells stimulated by rm-IL-23; assay: Production of IL-17 induced when mouse spleen cells were stimulated by recombinant mouse interleukin-23 (rm-IL-23); type: cell-based; conditions: Mus musculus, 72 h, inhibition of IL-17 production, DBA/1J mouse spleen cells, rm-IL-23 1 nmol/L, ELISA
Procedure: Effect on Production of IL-17 Induced when Mouse Spleen Cells were Stimulated by Recombinant Mouse Interleukin-23 (rm-IL-23)
An RPMI1640 (Sigma-Aldrich) was used as a medium, to which penicillin G potassium (50 units/mL; Gibco), streptomycin (50 μg/mL; Gibco) and 2-mercaptoethanol (50 μmol/l; Sigma-Aldrich) were added, and then 10% of fetal calf serum (FCS; Cell Culture Technology) inactivated at 56° C. for 30 minutes was added and used in the Test. The test compound was dissolved in dimethylsulfoxide and diluted with 10% FCS-containing RPMI1640 medium to a desired concentration and used in the test. The spleens were aseptically taken out from 6-7 week-old male DBA/1J mice (Charles River Japan, Inc.) and a single cell suspension of spleen cells was prepared and hemolyzed by hypotonic treatment with a mixture of 0.83% aqueous solution of ammonium chloride and Tris-HCl buffer of pH 7.65 (9:1). A cell suspension prepared by 10% FCS-containing RPMI1640 medium was added to flat-bottomed 96 well microtestplate at 2×10^5 cells/well. Test compounds and rm-IL-23 (R&D systems) were diluted with a medium to 1 to 1,000 nmol/L, and 1 nmol/L of the final concentration respectively, which were added and cultured at 37° C., 5% carbon dioxide and 95% air for 72 hours. After completion of the culture, culture supernatant was sampled and an amount of IL-17 production was determined by ELISA method. After sampling the supernatant, WST-8 (Seikagaku Corporation) was added at 10 μl/well and cultured at 37° C., 5% carbon dioxide and 95% air for 4 hours. Then, absorbance (O.D.: Optical Density) at 450 nm was measured by a microplate reader and the value was adopted as an index of cell survivability. An inhibition rate (%) was calculated according to the following formula on the basis of an average of an amount of IL-17 production and a O.D. values of the well containing a test compound of each concentration.
Based on the dose-response curve obtained by plotting the inhibition rate in the longitudinal axis and concentration in the horizontal axis, the concentration of the compound which inhibits the level to 50% of the value of the control group (IC50; nmol/L) was determined by linear regression analysis. The results was shown in the next Table 1

hERG = hERG (Homo sapiens, UniProt Q12809); assay: Effects on hERG current (whole-cell clamping); conditions: human, HEK 293 cells that express hERG, pH 7.4, hERG inhibition rate (%) (1 μM), 1 μM; tail peak current; hERG-expressed HEK 293 cells
Sequence of hERG (Q12809 whole entry): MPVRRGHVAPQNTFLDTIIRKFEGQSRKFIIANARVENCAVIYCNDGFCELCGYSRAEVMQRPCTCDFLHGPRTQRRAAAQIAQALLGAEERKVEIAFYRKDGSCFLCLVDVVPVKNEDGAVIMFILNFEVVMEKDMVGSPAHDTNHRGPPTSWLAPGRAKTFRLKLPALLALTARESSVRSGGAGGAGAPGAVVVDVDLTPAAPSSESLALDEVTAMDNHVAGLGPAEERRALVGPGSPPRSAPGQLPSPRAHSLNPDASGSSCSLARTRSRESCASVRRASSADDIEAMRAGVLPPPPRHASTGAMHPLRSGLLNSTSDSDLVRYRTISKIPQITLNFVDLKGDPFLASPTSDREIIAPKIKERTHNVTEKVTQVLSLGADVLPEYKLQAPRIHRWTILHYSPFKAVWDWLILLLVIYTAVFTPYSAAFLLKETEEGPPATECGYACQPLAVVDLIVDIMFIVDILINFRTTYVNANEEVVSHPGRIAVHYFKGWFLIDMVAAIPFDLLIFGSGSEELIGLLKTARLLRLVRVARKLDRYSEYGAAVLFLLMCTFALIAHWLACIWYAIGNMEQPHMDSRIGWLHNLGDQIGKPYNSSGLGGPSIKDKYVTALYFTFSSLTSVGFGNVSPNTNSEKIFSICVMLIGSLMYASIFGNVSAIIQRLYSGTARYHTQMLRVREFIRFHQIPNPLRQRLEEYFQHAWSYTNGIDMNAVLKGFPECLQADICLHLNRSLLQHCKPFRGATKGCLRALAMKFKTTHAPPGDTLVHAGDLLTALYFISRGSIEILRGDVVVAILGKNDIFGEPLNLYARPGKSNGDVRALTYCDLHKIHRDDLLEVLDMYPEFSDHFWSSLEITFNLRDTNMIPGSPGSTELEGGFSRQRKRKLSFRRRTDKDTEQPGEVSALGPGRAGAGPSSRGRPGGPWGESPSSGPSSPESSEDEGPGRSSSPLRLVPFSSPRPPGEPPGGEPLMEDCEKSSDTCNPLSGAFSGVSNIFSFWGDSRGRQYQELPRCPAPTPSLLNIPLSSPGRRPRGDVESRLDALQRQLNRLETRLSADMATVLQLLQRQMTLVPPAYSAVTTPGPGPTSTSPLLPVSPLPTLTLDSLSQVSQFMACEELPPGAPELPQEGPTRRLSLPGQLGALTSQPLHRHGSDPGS
Procedure: Dimethylsulfoxide was used as a vehicle and hERG-expressed HEK 293 cells (Cytomyx) were used as test cells. Test cells were once cultured and subdivided and were stored under frozen condition in liquid nitrogen. In the study, thawed and subcultured cells having less than 30 of the passage number were used. Test cells were cultured in a carbon dioxide incubator BNP-110M (Tabai Espec Corp.) at 37±1° C., and 5.0±0.5% of carbon dioxide concentration. The component of culture medium was MEM (Minimum Essential Medium) supplemented with 10 vol % fetal bovine serum (non-activated), 1 mmol/L sodium pyruvate, 0.1 mmol/L non-essential amino acid, 100 U/mL penicillin with 100 μg/mL streptomycin. To select gene-expressing cells, 400 μg/mL G418 Sulphate (Invitrogen) was added to the culture medium. In the dishes for the measurement, the medium which not contain G418 Sulphate (Invitrogen) was used.
As to seeding of cells for measurement, subcultured cells which became confluent were treated with 0.25% trypsin-solution containing 1 mmol/L EDTA (Invitrogen) to remove from the plate, and seeded on sterilized collagen-coated cover glass (Iwaki, AGC Techno Glass Co., LTD). The medium was exchanged appropriately, including the day of measurement.
A perfusion method was applied to the experiment. Test cells were perfused (perfusion speed: approximately 4 mL/min) with an external solution containing specified concentrations of test compounds (component of external solution: 137 mmol/L of sodium chloride, 4 mmol/L of potassium chloride, 10 mmol/L of HEPES, 1.8 mmol/L of calcium chloride, 1 mmol/L of magnesium chloride and 10 mmol/L of glucose; adjusted to pH 7.4±0.1 with sodium hydroxide aqueous solution). […] When effects were observed, the perfusion was continued until the maximum response was observed. […] The data were obtained from one experiment or more and the cells which were incubated in a carbon dioxide incubator after seeding and attached to cover slips were used for the measurement.
A whole-cell clamping method was applied to the measurement. Test cells were perfused (perfusion speed: approximately 4 mL/min) with an external solution (component of external solution: 137 mmol/L of sodium chloride, 4 mmol/L of potassium chloride, 10 mmol/L of HEPES, 1.8 mmol/L of calcium chloride, 1 mmol/L of magnesium chloride and 10 mmol/L of glucose; adjusted to pH 7.4±0.1 with sodium hydroxide aqueous solution). A glass electrode with a resistance of 2 to 6 MΩ, filled with an internal solution (component: 130 mmol/L of potassium chloride, 1 mmol/L of magnesium chloride, 5 mmol/L of EGTA, 10 mmol/L of HEPES and 5 mmol/L of ATP adjusted to pH 7.2±0.1 with sodium hydroxide aqueous solution) was used. After rupturing cell membrane with glass electrode, the cell membrane voltage was held at −80 mV via a patch clamp software (pCLAMP9 [Axon CNS], Molecular Devices) using patch clamp amplifier (EPC8, HEKA). […] Test cells and the cell-attached cover glass were changed every treatment. Temperature of the fluid in a perfusion fluid tank was 24±2° C.
The obtained current was recorded on a computer via a patch clamp amplifier using patch clamp software. An evaluation item was a tail peak current.
A tail peak current was analyzed using analyzing software (Clampfit 9 [Axon CNS], MolecularDevices). Each 2 pulses of before and after perfusion of test compound for each concentration was analyzed, and a peak values of the tail current on the pulses were determined. The inhibition ratio was determined according to the following equation:

SMILES	IC50 [1]	inhibition at 1 µM (hERG)
Cc1cc(NC(=O)c2cnn(-c3ccc(C4CC4)cn3)c2C)cnc1C1=CCN(C2CCOC2C)CC1 (centres unmarked) [Example D191]	58.4 nM	47.6%
COc1cc(C(F)(F)F)cnc1-n1ncc(C(=O)Nc2cnc(C3CCC4(CC3)OCCO4)c(C)c2)c1C [Example D197]	123 nM	0.8%
Cc1cc(NC(=O)c2cnn(-c3ccc(C(C)C)cn3)c2C)cnc1C1=CCC(N2CCOCC2)CC1 (centres unmarked) [Example D200]	58.4 nM	47.6%
Cc1cc(NC(=O)c2cnn(-c3ccccc3)c2C)cnc1C1=CCC(N(C)C(=O)C(C)(C)C)CC1 (centres unmarked) [Example D214]	18.7 nM	10%
Cc1cc(NC(=O)c2nn(C)c3ccccc23)cnc1C1=CCC(N(C)C(=O)C(C)(C)C)CC1 (centres unmarked) [Example D217]	84.4 nM	26.7%
Cc1cc(NC(=O)c2cnn(-c3ccc(C(F)(F)F)cn3)c2C)cnc1C1=CCC(C(=O)N(C)C)CC1 (centres unmarked) [Example D221, N-[6-(4-N,N-Dimethylcarbamoylcyclohex-1-en-1-yl)-5-methylpyridin-3-yl]-5-methyl-1-[5-(trifluoromethyl)pyridin-2-yl]-1H-pyrazole-4-carboxamide]	31.4 nM	20.1%
Cc1c(C(=O)Nc2ccc(C3CCC4(CC3)OCCO4)nc2)cnn1-c1ccc(C(F)(F)F)cn1 [Example D237]	50.3 nM	3.6%
Cc1c(C(=O)Nc2ccc([C@]3(C#N)CC[C@@](C)(O)CC3)nc2)cnn1-c1ccc(C(F)(F)F)cn1 [Example D254]	146 nM	6.6%
Cc1ccc(-n2ncc(C(=O)Nc3cnc(C4=CCC(N(C)C(=O)C(C)(C)C)CC4)c(C)c3)c2C)nc1 (centres unmarked) [Example D264]	17.4 nM	7.5%

Now from value to compound, other results behind:

IC50 [1]	SMILES	inhibition at 1 µM (hERG)
54.6 nM	Cc1cc(NC(=O)c2cnn(-c3ncc(C(F)(F)F)cc3F)c2C)cnc1C1CCC2(CC1)OCCO2 [Example D196, N-[6-(1,4-Dioxaspiro[4.5]dec-8-yl)-5-methylpyridin-3-yl]-1-[3-fluoro-5-(trifluoromethyl)pyridin-2-yl]-5-methyl-1H-pyrazole-4-carboxamide]	13.6%
59.5 nM	Cc1cc(NC(=O)c2cnn(-c3ccc(F)cc3)c2C)cnc1C1=CCC(N(C)C(=O)C(C)C)CC1 (centres unmarked) [Example D219, 1-(4-Fluorophenyl)-N-{6-[4-(N-isobutyryl-N-methylamino)cyclohex-1-en-1-yl]-5-methylpyridin-3-yl}-5-methyl-1H-pyrazole-4-carboxamide]	11.4%
141 nM	Cc1cc(NC(=O)c2cnn(-c3ccc(C(F)(F)F)cn3)c2C)cnc1C1=CCC(NC(=O)C(C)(C)C)CC1 (centres unmarked) [Example D224]	19.5%
55.6 nM	Cc1cc(NC(=O)c2cnn(-c3ccc(C(F)(F)F)cn3)c2C)cnc1C1=CCC2(CC1)OCCO2 [Example D234]	5.6%
49.1 nM	Cc1cc(NC(=O)c2cnn(-c3ccc(C(F)(F)F)cn3)c2C)cnc1C1CCC2(CC1)OCCO2 [Example D238]	5%
131 nM	Cc1cc(NC(=O)c2cnn(-c3ccc(C(F)(F)F)cn3)c2C)cnc1C1=CCC(N(C)C(=O)OC(C)(C)C)CC1 (centres unmarked) [Example D249, N-methyl-{4-[3-methyl-5-({5-methyl-1-[5-(trifluoromethyl)pyridin-2-yl]-1H-pyrazole-4-carbonyl}-amino)pyridin-2-yl]cyclohex-3-en-1-yl}carbamoic acid carbamic acid tert-butyl ester]	36.9%
4.02 nM	Cc1cc(NC(=O)c2cnn(-c3ccc(F)cc3)c2C)cnc1C1=CCC(N(C)C(=O)C(C)(C)C)CC1 (centres unmarked) [Example D260]	16.8%
